Three molecules from the NIST ThermoML archive (doi:10.1021/acs.jced.7b00440) can be followed below.

The conditions of this data set: 100 kPa, Liquid; for viscosity: Capillary tube (Ostwald / Ubbelohde) method; for mass density: Vibrating tube method.

Structures are written as SMILES. ± gives the expanded uncertainty stated by the source.

Take `CC(C)CO` [2-methyl-1-propanol]: the viscosity (usually the resistance of a fluid to flow) reads like this: (293.15 K) 4.077 ± 0.079 mPa·s; (298.15 K) 3.394 ± 0.066 mPa·s; (303.15 K) 2.949 ± 0.057 mPa·s; (308.15 K) 2.54 ± 0.049 mPa·s; (313.15 K) 2.208 ± 0.043 mPa·s; (318.15 K) 1.855 ± 0.036 mPa·s. Moreover, the viscosity reads like this: (323.15 K) 1.621 ± 0.032 mPa·s; (328.15 K) 1.425 ± 0.028 mPa·s; (333.15 K) 1.25 ± 0.024 mPa·s. The mass density (usually the mass of a sample divided by its volume) by setting is: (293.15 K) 801.98 ± 0.27 kg/m3; (298.15 K) 798.13 ± 0.27 kg/m3; (303.15 K) 794.24 ± 0.27 kg/m3; (308.15 K) 790.29 ± 0.27 kg/m3; (313.15 K) 786.3 ± 0.27 kg/m3; (318.15 K) 782.24 ± 0.27 kg/m3. Also, the mass density is, setting by setting: (323.15 K) 778.12 ± 0.27 kg/m3; (328.15 K) 773.92 ± 0.27 kg/m3; (333.15 K) 769.65 ± 0.27 kg/m3.

In the case of `CCCCO` [butan-1-ol], the viscosity stood at 2.97 ± 0.056 mPa·s (293.15 K); 2.547 ± 0.048 mPa·s (298.15 K); 2.237 ± 0.042 mPa·s (303.15 K); 1.98 ± 0.038 mPa·s (308.15 K); 1.757 ± 0.033 mPa·s (313.15 K); 1.568 ± 0.03 mPa·s (318.15 K). The viscosity is 1.404 ± 0.027 mPa·s (323.15 K), 1.255 ± 0.024 mPa·s (328.15 K) and 1.132 ± 0.022 mPa·s (333.15 K). Also, the mass density by setting is: (293.15 K) 809.01 ± 0.2 kg/m3; (298.15 K) 805.87 ± 0.2 kg/m3; (303.15 K) 802.06 ± 0.21 kg/m3; (308.15 K) 798.18 ± 0.21 kg/m3; (313.15 K) 794.26 ± 0.21 kg/m3; (318.15 K) 790.3 ± 0.21 kg/m3. Moreover, the mass density (323.15 K) was 786.29 ± 0.21 kg/m3, the mass density (328.15 K) was 782.02 ± 0.21 kg/m3 and the mass density (333.15 K) was found to be 777.81 ± 0.21 kg/m3.

On to `CCC(C)O` (centres undefined) [butan-2-ol], for which the viscosity by setting is: (293.15 K) 3.742 ± 0.071 mPa·s; (298.15 K) 3.093 ± 0.059 mPa·s; (303.15 K) 2.579 ± 0.049 mPa·s; (308.15 K) 2.147 ± 0.041 mPa·s; (313.15 K) 1.826 ± 0.035 mPa·s; (318.15 K) 1.555 ± 0.03 mPa·s. Further, the viscosity (323.15 K) was 1.337 ± 0.025 mPa·s, the viscosity (328.15 K) is recorded as 1.142 ± 0.022 mPa·s and the viscosity (333.15 K) is on record as 0.992 ± 0.019 mPa·s. The mass density is, setting by setting: (293.15 K) 807.17 ± 0.2 kg/m3; (298.15 K) 803.05 ± 0.21 kg/m3; (303.15 K) 798.85 ± 0.21 kg/m3; (308.15 K) 794.55 ± 0.21 kg/m3; (313.15 K) 790.16 ± 0.21 kg/m3; (318.15 K) 785.66 ± 0.21 kg/m3. Besides, the mass density by setting is: (323.15 K) 781.05 ± 0.21 kg/m3; (328.15 K) 776.34 ± 0.21 kg/m3; (333.15 K) 771.51 ± 0.21 kg/m3.
